One data set deals with FLAP mRNA. The data set can be described thus: Liver gene expression by quantitative RT-PCR: FLAP. It counts as in vivo, C57BL/6 mice. The following applies: 100 mg/kg oral once daily, 8 to 12 weeks of age (MN-001-high). The method, then:
(§1) Total RNA was extracted from liver samples using RNAiso (Takara Bio, Japan) according to the manufacturer's instructions. One μg of RNA was reverse-transcribed using a reaction mixture containing 4.4 mM MgCl2 (F. Hoffmann-La Roche, Switzerland), 40 U RNase inhibitor (Toyobo, Japan), 0.5 mM dNTP (Promega, USA), 6.28 μM random hexamer (Promega), 5× first strand buffer (Promega), 10 mM dithiothreitol (Invitrogen, USA) and 200 U MMLV-RT (Invitrogen) in a final volume of 20 μL. The reaction was carried out for 1 hour at 37° C., followed by 5 minutes at 99° C. Real-time PCR was performed using real-time PCR DICE and SYBR premix Taq (Takara Bio). To calculate the relative mRNA expression level, the expression of each gene was normalized to that of reference gene 36B4 (gene symbol: Rp1p0). Information of PCR-primer sets are described in Table 1. [table] […] P values<0.05 were considered statistically significant. […] Results were expressed as mean±SD.

Data set [1] has as its system STAM Model of Advanced Non-Alcoholic Steatohepatitis. The data set can be described thus: Sirius red staining, percentage of fibrosis area in STAM mice. In kind it is in vivo, C57BL/6 mice. The following applies: for Sirius red-positive area (fibrosis area): mean ± SD. The method, then:
For HE staining, sections were cut from paraffin blocks of liver tissue prefixed in Bouin's solution and stained with Lillie-Mayer's Hematoxylin (Muto Pure Chemicals, Japan) and eosin solution (Wako Pure Chemical Industries). NAFLD Activity score (NAS) was calculated according to the criteria of Kleiner (Kleiner D E. et al., Hepatology, 2005; 41:1313). To visualize collagen deposition, Bouin's fixed liver sections were stained using picro-Sirius red solution (Waldeck, Germany). For quantitative analysis of fibrosis area, inflammation area, and semi-quantification of α-SMA, bright field images of Sirius red-stained, F4/80- and α-SMA-immunostained sections were captured around the central vein using a digital camera (DFC280: Leica Microsystems, Germany) at 200-fold magnification, and the positive areas in 5 fields/section were measured using ImageJ software (National Institute of Health, USA). […] P values<0.05 were considered statistically significant. […] Results were expressed as mean±SD.

The conditions of data set [2]: Telmisartan 10 mg/kg oral once daily, 8 to 12 weeks of age. The procedure:
NASH was induced in 50 male mice by a single subcutaneous injection of 200 μg streptozotocin (STZ, Sigma-Aldrich, USA) solution 2 days after birth and feeding with high fat diet (HFD, 57 kcal % fat, cat#: HFD32, CLEA Japan, Japan) after 4 weeks of age.
MN-001 was administered at doses of 10, 30, and 100 mg/kg once daily. Telmisartan was administered at a dose of 10 mg/kg once daily.
Statistical analyses were performed using Bonferroni Multiple Comparison Test on GraphPad Prism 4 (GraphPad Software, USA). P values<0.05 were considered statistically significant. A trend or tendency was assumed when a one-tailed t-test returned P values<0.10. Results were expressed as mean±SD.
The viability, clinical signs and behavior were monitored daily. Body weight was recorded before the treatment. […] The animals were sacrificed by exsanguination through direct cardiac puncture under ether anesthesia (Wako Pure Chemical Industries).

Another data set deals with LTC4 synthase mRNA. The data set can be described thus: Liver gene expression by quantitative RT-PCR: LTC4 synthase. The following applies: Telmisartan 10 mg/kg oral once daily, 8 to 12 weeks of age. In kind it is in vivo, C57BL/6 mice. The procedure:
as §1

Setting [3] is: 10 mg/kg oral once daily, 8 to 12 weeks of age (MN-001-low; Telmisartan).
[4] abbreviates: 10 mg/kg oral once daily, 8 to 12 weeks of age (MN-001-low n=10; Telmisartan n=9).

Each structure is given as a SMILES string.

In the case of `CCCc1c(SCCCOc2ccc(C(C)=O)c(OCCCC(=O)O)c2CCC)ccc(C(C)=O)c1O` [MN-001], in the data set on FLAP mRNA, the “FLAP mRNA expression levels compared with the Vehicle group” value is recorded as “tended to increase”. In addition, the “Fibrosis area compared with the Vehicle group” value is listed as “significantly decreased” in data set [1] (setting [3]); “tended to decrease” in data set [1] (30 mg/kg oral once daily, 8 to 12 weeks of age (MN-001-middle)); “significantly decreased” in data set [1] (100 mg/kg oral once daily, 8 to 12 weeks of age (MN-001-high)). The “Sirius red-positive area (fibrosis area)” value stood at 0.75 ± 0.40% in data set [1] (setting [4]); 0.95 ± 0.37% in data set [1] (30 mg/kg oral once daily, 8 to 12 weeks of age (MN-001-middle, n=10)); 0.65 ± 0.28% in data set [1] (100 mg/kg oral once daily, 8 to 12 weeks of age (MN-001-high, n=10)).

Take `CCCc1nc2c(C)cc(-c3nc4ccccc4n3C)cc2n1Cc1ccc(-c2ccccc2C(=O)O)cc1` [Telmisartan, reference compound]: the “Mortality (animals found dead)” value in data set [2] was “One of the Telmisartan group was found dead on day 24”. Besides, the “LTC4 synthase mRNA expression levels compared with the Vehicle group” value in the data set on LTC4 synthase mRNA was “tended to decrease”. Besides, in data set [1] (setting [3]), the “Fibrosis area compared with the Vehicle group” value is on record as “significantly decreased”. In data set [1] (setting [4]), the “Sirius red-positive area (fibrosis area)” value is given as 0.49 ± 0.19%.

(Values after patent US9346754B2, “Method of treating advanced non-alcoholic steatohepatitis” (priority 2014, dated 2016).)
